The values that follow come from patent US8034940B2, “Modulators of glucocorticoid receptor, AP-1, and/or NF-κB activity and use thereof” (Bristol-Myers Squibb Company, priority 2006, dated 2011).

By EC50 is commonly meant the concentration needed to bring the measured effect to its halfway point. A high value points to weaker potency.

For the test, the system named is AP-1 induced transcriptional activity. Briefly: Cellular Transrepressional Assay (AP-1 luciferase reporter, PMA-activated A549 cells). The class given is cell-based. Particulars: for AP-1 Max % inh (Cellular Transrepression Assay) / Emax: maximum inhibition; for Emax: A549, 7 h, read-out: AP-1 Max % inh (Cellular Transrepression Assay). Summed up:
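Compounds tested from 0.1 nM to 40 μM during a 7 h PMA (10 ng/ml) stimulation of A549 cells stably transfected with 7× AP-1 sites driving luciferase. Repression expressed as % reduction of PMA-induced luminescence; EC50 by curve fitting.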
(In general: In a reporter assay the amount or activity of a reporter protein is the signal.)

The mark [1] stands for this setting: Homo sapiens, Cellular Transrepression Assay.
[2] abbreviates: Homo sapiens, A549, Cellular Transrepression Assay.

Take `CC(C)(C(=O)Nc1nncs1)C1c2ccccc2Oc2nc(-c3ccc(OC(F)(F)F)cc3)ccc21` (centres unmarked) [Example 173]: for the setting “Cellular Transrepression Assay”, the EC50 was 82.5 nM and the “AP-1 Max % inh (Cellular Transrepression Assay)” value (“AP-1 Max % inh” below) amounted to 44.82%.

With `CC(C)(C(=O)Nc1nnc(CF)s1)[C@H]1c2ccccc2Oc2nc(-c3ccc(C(=O)N4CCCC4)c(F)c3)ccc21` [Example 431], the Emax under setting [1] came to 41.8%. Besides, under setting [2], a half-maximal effect (EC50) was put at 69 nM.

Regarding `CCCCNC(=O)Oc1ccc2c(c1)Oc1ccccc1C2C(C)(C)C(=O)Nc1nncs1` (centres unmarked) [Example 388], the Emax under setting [1] was found to be 57.6%. In addition, under setting [2], the EC50 came out at 34.2 nM.

Consider `CC(C)(C(=O)Nc1nncs1)[C@H]1c2ccccc2Oc2nc(-c3ccc(C(=O)N4CCC[C@@H]4C(N)=O)cc3)ccc21` [Example 312], for which the Emax under setting [1] is 73.1%. This molecule showed an EC50 under setting [2] of 267 nM.

With `COC[C@H]1CCCN1C(=O)c1ccc(-c2ccc3c(n2)Oc2ccccc2[C@@H]3C(C)(C)C(=O)Nc2nncs2)cc1Cl` [Example 330], the Emax under setting [1] was 60.6%. The molecule also showed a concentration giving a half-maximal response (EC50) under setting [2] of 21.9 nM.

On to `CC(C)(C(=O)Nc1nncs1)[C@H]1c2ccccc2Oc2nc(-c3ccncc3)ccc21` [Example 219], for which, where the note is “Cellular Transrepression Assay”, the response was half-maximal at 180 nM (EC50) and the “AP-1 Max % inh” value stood at 35.87%.

On to `CC(C)(C(=O)Nc1nnc(CO)s1)[C@H]1c2ccccc2Oc2nc(-c3ccc(C(=O)N4CCCC4)c(F)c3)ccc21` [Example 423], for which the Emax under setting [1] was determined as 30.4%. This molecule also returned an EC50 under setting [2] of 82 nM.

Take `CC(C)(C(=O)Nc1nncs1)C1c2ccccc2Oc2cc(NC(=O)OCc3ccccc3)ccc21` (centres unmarked) [Example 119]: under setting [1], the Emax came to 45.3%. For the same molecule, under setting [2], the response was half-maximal at 83 nM (EC50).

On to `CN(C)C(=O)c1ccc(-c2ccc3c(n2)Oc2ccccc2C3C(C)(C)C(=O)Nc2nncs2)cc1` (centres unmarked) [Example 172], for which, where the note is “Cellular Transrepression Assay”, a half-maximal effect (EC50) was put at 13.2 nM and the “AP-1 Max % inh” value came to 59.04%.

Regarding `CC(C)(C(=O)Nc1nc(-c2ccc(F)c3ccccc23)cs1)C1c2ccccc2Oc2ccccc21` [Example 32], the Emax under setting [1] was 67.6%. For the same molecule, under setting [2], the EC50 is 302 nM.

As to `CC(C)(C(=O)Nc1nc(Cc2ccc(-c3ccncc3)cc2)cs1)C1c2ccccc2Sc2ccccc21` [Example 5], the Emax under setting [1] is 66%. Under setting [2], a half-maximal response (EC50) required 58.2 nM.

Turning to `CC(C)(C(=O)Nc1nncs1)[C@H]1c2ccccc2Oc2nc(-c3ccc(O)c(F)c3)ccc21` [Example 223], under “Cellular Transrepression Assay”, a half-maximal effect (EC50) was put at 839 nM and the “AP-1 Max % inh” value is reported as 27.87%.

As to `CSc1ccc(-c2ccc3c(n2)Oc2ccccc2C3C(C)(C)C(=O)Nc2nncs2)cc1` (centres unmarked) [Example 199], where the note is “Cellular Transrepression Assay”, the EC50 came out at 27.6 nM and the “AP-1 Max % inh” value is reported as 48.94%.

Regarding `CC(C)(C(=O)Nc1nncs1)C1c2ccccc2Oc2cc(OC(=O)NCC3CCCCC3)ccc21` (centres unmarked) [Example 392], under “Cellular Transrepression Assay”, the EC50 worked out at 49.7 nM and the “AP-1 Max % inh” value amounted to 44.82%.

In the case of `CC(C)(C(=O)Nc1nc(-c2ccc(F)c3ccccc23)cs1)C1c2ccccc2Cc2ccccc21` [Example 17], the Emax under setting [1] turned out to be 68%. The molecule also returned an EC50 under setting [2] of 335 nM.

On to `CCCc1ccc(-c2ccc3c(n2)Oc2ccccc2C3C(C)(C)C(=O)Nc2nncs2)cc1` (centres unmarked) [Example 205], for which, under “Cellular Transrepression Assay”, the EC50 was determined as 8.5 nM and the “AP-1 Max % inh” value is on record as 57.72%.

`CC(=O)N1CCN(C(=O)c2ccc(-c3ccc4c(n3)Oc3ccccc3[C@@H]4C(C)(C)C(=O)Nc3nncs3)cc2)CC1` [Example 274]: the Emax under setting [1] came to 62.2%. Also, the EC50 under setting [2] was 234 nM.

Regarding `CN(C)C(=O)c1ccc(-c2ccc3c(n2)Oc2ccccc2[C@H]3C2(C(=O)Nc3nncs3)CCC2)cc1` (single isomer, unassigned) [Example 481], under setting [1], the Emax came out at 33.8%. Also, the EC50 under setting [2] turned out to be 579 nM.

Consider `CC(C)(C(=O)Nc1nc(-c2ccc(F)c3ccccc23)cs1)C1c2ccccc2Oc2nc(Cl)ccc21` (centres unmarked) [Example 73], for which the Emax under setting [1] came to 60.6%. Under setting [2], the 50% effective concentration (EC50) stood at 735 nM.

For the molecule `O=C(CC1c2ccccc2Sc2ccccc21)Nc1nc(-c2cccc3ccccc23)cs1` [Example 28], the Emax under setting [1] turned out to be 43.7%.

Consider `CCN(C)C(=O)c1ccc(-c2ccc3c(n2)Oc2ccccc2C3C(C)(C)C(=O)Nc2nncs2)cc1` (centres unmarked) [Example 251], for which, for the setting “Cellular Transrepression Assay”, the EC50 was 17.4 nM and the “AP-1 Max % inh” value amounted to 54.92%.

On to `CCCCCc1ccc(-c2ccc3c(n2)Oc2ccccc2C3C(C)(C)C(=O)Nc2nncs2)cc1` (centres unmarked) [Example 220], for which, under “Cellular Transrepression Assay”, the EC50 was determined as 105 nM and the “AP-1 Max % inh” value was 52.23%.

As for `CC(C)(C(=O)Nc1nncs1)[C@H]1c2ccccc2Oc2nc(-c3ccc(C(=O)N4CCC(F)(F)C4)c(Cl)c3)ccc21` [Example 340], under setting [1], the Emax was determined as 67.6%. Further, the EC50 under setting [2] stood at 54.8 nM.

In the case of `CC(C)(C(=O)Nc1nnc(C(N)=O)s1)[C@H]1c2ccccc2Oc2nc(-c3ccc(C(=O)N4CCCC4)c(F)c3)ccc21` [Example 418], the Emax under setting [1] was determined as 29.1%. The same molecule yielded an EC50 under setting [2] of 82.1 nM.

For the molecule `CCCCOc1ccc(-c2ccc3c(n2)Oc2ccccc2C3C(C)(C)C(=O)Nc2nncs2)cc1` (centres unmarked) [Example 210], for the setting “Cellular Transrepression Assay”, the half-maximal effective concentration (EC50) amounted to 77.7 nM and the “AP-1 Max % inh” value came to 39.38%.

For the molecule `CC(C)N(C)C(=O)c1ccc(-c2ccc3c(n2)Oc2ccccc2[C@@H]3C(C)(C)C(=O)Nc2nncs2)cc1F` [Example 329], where the note is “Cellular Transrepression Assay”, the EC50 was determined as 583 nM and the “AP-1 Max % inh” value was determined as 40.81%.

With `Cc1nnc(NC(=O)C(C)(C)C2c3ccccc3Oc3cc(O)ccc32)s1` (centres unmarked) [Example 100], the Emax under setting [1] amounted to 71.7%. The molecule also displayed a half-maximal effective concentration (EC50) under setting [2] of 256 nM.

`CCOC(=O)c1nnc(NC(=O)C(C)(C)[C@H]2c3ccccc3Oc3nc(-c4ccc(C(=O)N5CCCC5)c(F)c4)ccc32)s1` [Example 417]: the Emax under setting [1] is 54.1%. The molecule also gave an EC50 under setting [2] of 67.3 nM.

`Cc1csc(NC(=O)C(C)(C)[C@H]2c3ccccc3Oc3nc(-c4ccc(C(=O)N(C)C)cc4)ccc32)n1` [Example 443]: under setting [1], the Emax turned out to be 51.7%. The same molecule displayed an EC50 under setting [2] of 134 nM.

As for `CC(C)(C(=O)Nc1ncns1)[C@H]1c2ccccc2Oc2nc(-c3ccc(C(=O)N4CCOCC4)c(F)c3)ccc21` [Example 468], the Emax under setting [1] was 53.3%. The same molecule came in with an EC50 under setting [2] of 35.4 nM.

Regarding `COc1ccc2c(c1)Oc1ccccc1[C@H]2C(C)(C)C(=O)Nc1nc(Cc2ccc(-c3ccncc3)cc2)cs1` [Example 54], the Emax under setting [1] worked out at 71.4%. The same molecule registered an EC50 under setting [2] of 13.1 nM.

Regarding `Cc1ccc(-c2csc(NC(=O)C(C)(C)C3c4ccccc4-c4ccccc43)n2)c2ccccc12` [Example 20], the Emax under setting [1] turned out to be 46.9%. The response under setting [2] was half-maximal at 473 nM (EC50).

As for `CC(C)(C(=O)Nc1ncns1)[C@H]1c2ccccc2Oc2nc(-c3ccc(C(=O)N4CCCC4)c(F)c3)ccc21` [Example 456], the Emax under setting [1] is 45.8%. The same molecule registered an EC50 under setting [2] of 41.5 nM.

Turning to `CC(C)(C(=O)Nc1nc(Cc2ccc(Br)cc2)cs1)C1c2ccccc2Oc2ccccc21` [Example 35], under setting [1], the Emax came to 72.3%. The EC50 under setting [2] is 80.6 nM.

On to `CC(C)(C(=O)Nc1nncs1)[C@H]1c2ccccc2Oc2nc(N3CCC4(CC3)OCCO4)ccc21` [Example 139], for which the Emax under setting [1] is 26.8%. Under setting [2], this molecule yielded a 50% effective concentration (EC50) of 95.5 nM.

`CC(C)(C(=O)Nc1nncs1)[C@H]1c2ccccc2Oc2nc(-c3cccc(F)c3)ccc21` [Example 225]: where the note is “Cellular Transrepression Assay”, it took 920 nM to reach a half-maximal effect (EC50) and the “AP-1 Max % inh” value is 45.65%.

On to `CC(C)(C(=O)Nc1nncs1)[C@@H]1c2ccccc2Oc2cc(O)ccc21` [Example 95], for which the Emax under setting [1] came to 52.2%. Under setting [2], this molecule had a concentration giving a half-maximal response (EC50) of 574 nM.

Turning to `CC(C)(C(=O)Nc1nncs1)[C@H]1c2ccccc2Oc2nc(-c3ccc(C4CCCCC4)cc3)ccc21` [Example 221], for the setting “Cellular Transrepression Assay”, the EC50 came out at 28.9 nM and the “AP-1 Max % inh” value is 62.97%.

In the case of `CN(C)C(=O)c1ccc(-c2ccc3c(n2)Oc2ccccc2C3C2(C(=O)Nc3nncs3)CCC2)cc1` (centres unmarked) [Example 479], under setting [1], the Emax amounted to 44.4%. This molecule also yielded an EC50 under setting [2] of 47 nM.

With `Cc1nnc(NC(=O)C(C)(C)C2c3ccc(-c4ccc(C(=O)N5CCOCC5)cc4)nc3Oc3c(F)cccc32)s1` (centres unmarked) [Example 163], the Emax under setting [1] is 64.4%. Under setting [2], this molecule had a concentration giving a half-maximal response (EC50) of 4.9 nM.

Regarding `COc1ccc(Cc2csc(NC(=O)C(C)(C)C3c4ccccc4Oc4c(OCCN(C)C)cccc43)n2)cc1` (centres unmarked) [Example 85], the Emax under setting [1] was determined as 88.4%.

As for `CN(C)C(=O)c1ccc(-c2ccc3c(n2)Oc2ccccc2C3C2(C(=O)Nc3nncs3)CCCC2)cc1` (centres unmarked) [Example 484], the Emax under setting [1] is 29.8%. Besides, a half-maximal effect under setting [2] (EC50) was put at 19.3 nM.

Turning to `CSc1cnc(NC(=O)C(C)(C)[C@H]2c3ccccc3Oc3nc(-c4ccc(C(=O)N5CCCC5)c(F)c4)ccc32)s1` [Example 424], the Emax under setting [1] came out at 59.6%. This molecule came in with an EC50 under setting [2] of 150 nM.

As for `CC(C)(C(=O)Nc1nc(-c2cccc3ccccc23)cs1)C1c2ccccc2Cc2ccccc21` [Example 15], the Emax under setting [1] is 65.9%. This molecule also registered an EC50 under setting [2] of 501 nM.

Take `CC(C)(C(=O)Nc1nncs1)[C@H]1c2ccccc2Oc2nc(-c3ccc(C(=O)N4CCC(F)(F)C4)cc3)ccc21` [Example 314]: the Emax under setting [1] was 69.8%. In addition, a half-maximal response under setting [2] (EC50) required 18 nM.

For the molecule `COc1ccc(Cc2csc(NC(=O)C(C)(C)C3c4ccccc4Oc4nc(OC)ccc43)n2)cc1` (centres unmarked) [Example 77], the Emax under setting [1] amounted to 73.9%. The molecule also returned an EC50 under setting [2] of 91.6 nM.

As to `CC(C)(C(=O)Nc1nncs1)[C@H]1c2ccccc2Oc2nc(-c3ccc(C(=O)N4CCC[C@@H]4CO)cc3)ccc21` [Example 331], the Emax under setting [1] stood at 36.3%. In addition, a half-maximal effect under setting [2] (EC50) was put at 33.7 nM.

`CCOc1ccc(-c2ccc3c(n2)Oc2ccccc2C3C(C)(C)C(=O)Nc2nncs2)cc1` (centres unmarked) [Example 204]: where the note is “Cellular Transrepression Assay”, it took 42.8 nM to reach a half-maximal effect (EC50) and the “AP-1 Max % inh” value stood at 44.75%.

On to `CCc1cnc(-c2ccc3c(c2)Oc2ccccc2[C@@H]3C(C)(C)C(=O)Nc2nncs2)nc1` [Example 111], for which, under setting [1], the Emax is 40.7%. The molecule also yielded a half-maximal effective concentration (EC50) under setting [2] of 14.6 nM.

As to `CC(C)(C(=O)Nc1nc(-c2cccc3ccccc23)cs1)C1c2ccccc2S(=O)(=O)c2ccccc21` [Example 12], the Emax under setting [1] came out at 67.9%. Under setting [2], this molecule had an EC50 of 461 nM.
